Results reported in patent US6214537A, “Synthetic peptides and mixtures thereof for detecting HIV antibodies” (Biochem Immunosystems, Inc., priority 1988, dated 2001).

Key:
HIV-1 antibodies = test: ELISA, single peptides identifying HIV-1 positive sera; type: binding, human; settings: ELISA, single peptide
Description: According to this test a peptide or a peptide mixture of the present invention is adsorbed onto the wells of a microtiter plate. The wells are then treated with sera to be tested. After washing, anti-human IgG labeled with peroxidase is added to the wells. The determination of the peroxidase is performed with a corresponding substrate, e.g. with o-phenylene diamine. Also in this procedure the peroxidase can be exchanged by another label, e.g. by a radioactive or fluorescence label.
(§1) Each well of the microtiter plate is saturated with 100 μl of a solution containing a peptide or mixture of peptides (5 μg/ml) and left overnight. The wells are emptied and washed twice with a washing buffer (Tris, 0.043M; NaCl, 0.5M;thimerosal, 0.01% w/v; Tween 20, 0.05% v/v; pH 7.4). The wells are then saturated with 0.35 ml of washing buffer for 1 hr. at 37° C. and washed once with the same buffer. Serum samples to be analyzed are diluted with specimen buffer (washing buffer plus casein, 0.05% w/v). The wells are rinsed with washing buffer prior to the addition of the diluted serum sample (0.1 ml). These are left to incubate for 1 hr. at room temperature. The wells are then emptied, washed twice rapidly and then once for two minutes with washing buffer. […] The wells are then emptied and washed twice rapidly with washing buffer and then five times in which the buffer was in contact with the well 2 minutes per washing.
(§2) The substrate solution (3,3', 5,5'-tetramethylbenzidine, 8 mg per ml of DMSO) is diluted with 100 volumes 0.1M citrate-acetate buffer, pH 5.6 containing 0.1% v/v of 30% H2 O2 and added to each well (0.1 ml per well). After 10 minutes the contents of each well is treated with 0.1 ml 2N H2 SO4 and the optical density read at 450 nm. All determinations are done in duplicate.

[1] = system: antibodies specific to HIV-1; test: ELISA serum titers, plates coated with cyclic 87c versus linear 87; type: binding, human
Description: (§3) Even though results presented in TABLE 5 clearly show the superiority of cyclic peptides over their linear counterpart in detecting HIV-1-antibodies, that increased sensitivity could have been underestimated because of probable cyclization and polymerization of the linear peptide after solubilization in a carbonate buffer (pH 9.6). That experiment was repeated with the linear 87 and cyclic 87c peptides dissolved in a carbonate buffer (pH 9.6) as before and also in 10% acetic acid (pH 2.7). […] It is believed that cydization and polymerization also occured in the wells of the microtiter plates although the exact proportion of cyclic peptide bound to the plates versus linear has not been as yet determined.
(§4) Plates used in this experiment were coated with solutions of peptides at 10 μg/ml. (Experimental results of TABLE 5 were obtained with plates coated with peptides at 0,5 μg/ml). Four different HIV-1 positive serum samples were serially diluted and their titers determined. The titer was defined as the serum dilution giving an absorbancy reading of 1:0 in the conditions of the ELISA procedure already described.
The ratios of sensitivities measured with the cyclic peptide over the linear 87 peptide vary between 1:3 and 2:2 with an average of 1:8. These ratios are even larger, varying from 3:0 to 4:5, when the sensitivity of the ELISA test using the cyclic 87c peptide is compared using conditions (acidic pH) where the linear 87 peptide remains linear and is not allowed to cyclize or polymerize.

HIV-1-antibodies = test: ELISA, cyclic versus non-cyclic peptides, sera at various dilutions; type: binding, human
Description: TABLE 5 is provided to illustrate the sensitivity of cyclic versus noncyclic peptides in the ELISA test by comparing the results of some sera at various dilutions.
as §4, §1, §2

[2] = State of peptide in coating solution (HPLC, Ellman's test); type: physicochemical
Description: as §3

NH2 -RILAVERYLKDQQLLGIWGCSGKLICTTAVPWNAS-COOH [Peptide 87]
% Positive Sera correctly Identified (HIV-1 antibodies): 99% | serum titer ([1]; coating buffer 10% Acetic Acid (pH 2.7), serum M-5, coated at 10 μg/ml): 4500 | serum titer ([1]; coating buffer 10% Acetic Acid (pH 2.7), serum M-7, coated at 10 μg/ml): 2300 | serum titer ([1]; coating buffer 10% Acetic Acid (pH 2.7), serum M-8, coated at 10 μg/ml): 1400 | serum titer ([1]; coating buffer 10% Acetic Acid (pH 2.7), serum M-16, coated at 10 μg/ml): 15000 | serum titer ([1]; coating buffer Carbonate Bicarbonate 0.1M (pH 9.6), serum M-5, coated at 10 μg/ml): 10500 | serum titer ([1]; coating buffer Carbonate Bicarbonate 0.1M (pH 9.6), serum M-7, coated at 10 μg/ml): 6000 | serum titer ([1]; coating buffer Carbonate Bicarbonate 0.1M (pH 9.6), serum M-8, coated at 10 μg/ml): 2900 | serum titer ([1]; coating buffer Carbonate Bicarbonate 0.1M (pH 9.6), serum M-16, coated at 10 μg/ml): 33000 | ELISA optical density (HIV-1-antibodies; serum 87V103, dilution 1/50): 0.005 optical density units | ELISA optical density (HIV-1-antibodies; serum 1428, dilution 1/50): 1.463 optical density units | ELISA optical density (HIV-1-antibodies; serum M-5, dilution 1/50): 1.809 optical density units | ELISA optical density (HIV-1-antibodies; serum M-5, dilution 1/100): 1.685 optical density units | ELISA optical density (HIV-1-antibodies; serum M-5, dilution 1/200): 1.513 optical density units | ELISA optical density (HIV-1-antibodies; serum M-5, dilution 1/400): 1.418 optical density units | ELISA optical density (HIV-1-antibodies; serum M-5, dilution 1/800): 1.012 optical density units | ELISA optical density (HIV-1-antibodies; serum M-7, dilution 1/50): 1.504 optical density units | ELISA optical density (HIV-1-antibodies; serum M-7, dilution 1/100): 1.329 optical density units | ELISA optical density (HIV-1-antibodies; serum M-7, dilution 1/200): 1.184 optical density units | ELISA optical density (HIV-1-antibodies; serum M-7, dilution 1/400): 0.923 optical density units | ELISA optical density (HIV-1-antibodies; serum M-7, dilution 1/800): 0.571 optical density units | ELISA optical density (HIV-1-antibodies; serum M-8, dilution 1/50): 1.390 optical density units | ELISA optical density (HIV-1-antibodies; serum M-8, dilution 1/100): 1.087 optical density units | ELISA optical density (HIV-1-antibodies; serum M-8, dilution 1/200): 0.883 optical density units | ELISA optical density (HIV-1-antibodies; serum M-8, dilution 1/400): 0.593 optical density units | ELISA optical density (HIV-1-antibodies; serum M-8, dilution 1/800): 0.240 optical density units | ELISA optical density (HIV-1-antibodies; serum M-16, dilution 1/50): 1.846 optical density units | ELISA optical density (HIV-1-antibodies; serum M-16, dilution 1/100): 1.784 optical density units | ELISA optical density (HIV-1-antibodies; serum M-16, dilution 1/200): 1.740 optical density units | ELISA optical density (HIV-1-antibodies; serum M-16, dilution 1/400): 1.634 optical density units | ELISA optical density (HIV-1-antibodies; serum M-16, dilution 1/800): 1.537 optical density units | state of peptide in solution (HPLC, Ellman's test) ([2]; 10% acetic acid (pH 2.7)): remained linear | state of peptide in solution (HPLC) ([2]; carbonate buffer (pH 9.6), room temperature): underwent cyclization and polymerization
